This series in a line: in vitro. As to conditions: human, hela cells, % viability.
What is called viability is a read-out of living cells in per cent, often relative to untreated cells. For `O=C1CC[C@@H](NCc2ccccn2)[C@H](c2cc(F)cc(F)c2)N1` [CBK282911], the viability at 28.5 h, 10 µM was determined as 98.8%. The same measure for `CCn1ncc(CN[C@@H]2CCC(=O)N[C@H]2c2cc(F)cc(F)c2)c1C` [CBK282914]: 98.3%; for `Cc1cc(N2CCCC2)c(F)cc1CN1CCC(CO)C1` (stereo not drawn) [CBK282916]: 93.6%; for `O=C1NCC2(CCN(C(=O)c3cccs3)CC2)Oc2ccccc21` [CBK282917]: 100%.

On to `O=C1NCC2(CCN(C(=O)C3CCCC3)CC2)Oc2ccccc21` [CBK282920], for which the viability at 28.5 h, 10 µM was found to be 94.1%. Take `Cc1nn(-c2ccccc2)c2[nH]c(=O)c(CNC(C)(C)C)cc12` [CBK282921]: the viability at 28.5 h, 10 µM worked out at 101%. The figure for `CC(C)(C)C(=O)N1CCc2cc(C(O)CN3CCCC3)ccc21` (stereo not drawn) [CBK282923] is 93%; for `CC1CCN(CC(O)c2ccc3c(c2)CCN3C(=O)C2CC2)CC1` (stereo not drawn) [CBK282927] it is 102%; for `Cc1cc(C)n(-c2cccc(CN3CCC(CO)C3)c2)n1` (stereo not drawn) [CBK282928] it is 94.8%. The same measure for `OCC1CCN(Cc2ccc(OC3CCCC3)cc2)C1` (stereo not drawn) [CBK282929]: 99.5%. With `C[C@]12CN(Cc3ccccc3)C[C@H]1CNc1ccccc1C(=O)N2` [CBK282932], the viability at 28.5 h, 10 µM was 94.1%. The figure for `C=C(C)CN1CCN(C(=O)C(CC)Oc2ccccc2F)CC1` (stereo not drawn) [CBK282935] is 90.1%; for `CCN1CC(C(=O)N2CCN(C(=O)c3ccccc3F)CC2)CC1=O` (stereo not drawn) [CBK282937] it is 92.3%.

For `Cn1cc(C2CCCCCN2Cc2cc(Cl)ccc2O)cn1` (stereo not drawn) [CBK282941], the viability at 28.5 h, 10 µM was found to be 100%. The same measure for `OC1(c2ccc(F)cc2)CC2CCC(C1)N2CC1=CCCOC1` (stereo not drawn) [CBK282942]: 106%. The same measure for `OCCN(Cc1cccnc1)CC1(c2ccc(Cl)cc2)CC1` [CBK282943]: 101%; for `Cc1cc2nc(C3CCCN3C(=O)CN3CCCCC3)[nH]c2cc1C` (stereo not drawn) [CBK282944]: 91.3%; for `OCCN(Cc1cccnc1)Cc1cccn1Cc1ccccc1F` [CBK282945]: 93.5%.

In the case of `COCCCN(Cc1ccccn1)Cc1cccc(F)c1F` [CBK282947], the viability at 28.5 h, 10 µM amounted to 84.5%. The same measure for `O=C(N[C@H]1C2CCCCC2[C@@H]1c1ccccc1)c1cncnc1` (stereo partly drawn) [CBK282949]: 94.3%. `COCCCN(Cc1ccccn1)Cc1cc(F)ccc1F` [CBK282950]: the viability at 28.5 h, 10 µM stood at 108%. The figure for `O=C(COc1cccnc1)N[C@H]1C2CCCCC2[C@@H]1c1ccccc1` (stereo partly drawn) [CBK282951] is 100%; for `CCn1ncc(CN(CCN(C)C)Cc2cccs2)c1C` [CBK282958] it is 107%; for `Cc1nccn1CCCn1cncc1-c1ccc2c(c1)CCCN2C` [CBK282962] it is 93.1%. The figure for `Cc1cc(N2CCCC2)c(F)cc1CN1CCC(O)C(C)C1` (stereo not drawn) [CBK282963] is 91.6%. In the case of `CC(C(=O)N[C@H]1C2CCCCC2[C@@H]1c1ccccc1)N1CCOCC1` (stereo partly drawn) [CBK282964], the viability at 28.5 h, 10 µM worked out at 86.4%. The same measure for `CCn1c(CN[C@@H]2CCC[C@H]2Cc2cc(C)no2)cnc1SC` [CBK282965]: 96.6%. The same measure for `CC(C)C(=O)N1CCCC1c1cc2n(n1)[C@@H](C(F)(F)F)C[C@@H](C)N2` (stereo partly drawn) [CBK282966]: 106%; for `CCc1c(C)sc2ncn(C3CCNCC3)c(=O)c12` [CBK282972]: 81.2%. Regarding `Cc1ccsc1CN(Cc1nccn1C)CC(C)O` (stereo not drawn) [CBK282976], the viability at 28.5 h, 10 µM came to 92.3%. Take `Cc1nn(C(C)C)c(C)c1CN(CCCN(C)C)Cc1ccco1` [CBK282978]: the viability at 28.5 h, 10 µM was 86.8%.

As to `O=C(C1CC1)N1CCC(c2nc(Cc3cccs3)no2)C1` (stereo not drawn) [CBK282980], the viability at 28.5 h, 10 µM was determined as 89.6%.

In the case of `Fc1ccccc1CN(CCCn1ccnc1)Cc1ccncc1` [CBK282981], the viability at 28.5 h, 10 µM worked out at 102%.

The values above are taken from article PMC12040169 (PLOS Biology, 2025).
